Key:
Format in all cases: in vivo
Boophilus microplus = Boophilus microplus injection test; details: 20 μg/animal, after 7 days
Description: Boophilus microplus—Injection Test Solvent: dimethyl sulfoxide To produce a suitable active compound preparation, 10 mg of active compound are mixed with 0.5 ml of solvent and the concentrate is diluted to the desired concentration with solvent. 1 μl of the active compound solution is injected into the abdomen of 5 engorged adult female cattle ticks (Boophilus microplus). The animals are transferred into dishes and kept in a climate-controlled room. Efficacy is assessed after 7 days by laying of fertile eggs. Eggs which are not visibly fertile are stored in a climate-controlled cabinet until the larvae hatch after about 42 days. An efficacy of 100% means that none of the ticks has laid any fertile eggs; 0% means that all the eggs are fertile.

Ctenocephalides felis = Ctenocephalides felis oral test; details: 100 ppm, after 2 days
Description: Ctenocephalides felis—Oral Test Solvent: dimethyl sulfoxide To produce a suitable active compound preparation, 10 mg of active compound are mixed with 0.5 ml of dimethyl sulfoxide. Dilution with citrated cattle blood gives the desired concentration. About 20 unfed adult cat fleas (Ctenocephalides felis) are placed into a chamber which is closed at the top and bottom with gauze. A metal cylinder whose bottom end is closed with parafilm is placed onto the chamber. The cylinder contains the blood/active compound preparation, which can be imbibed by the fleas through the parafilm membrane. After 2 days, the kill in % is determined. 100% means that all of the fleas have been killed; 0% means that none of the fleas have been killed.

Meloidogyne incognita = Meloidogyne incognita test (sand, lettuce, gall formation); details: Meloidogyne incognita, 336 h, 20 ppm, after 14 days; read-out: nematicidal efficacy (formation of galls)
Summary of the method: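 Gall counts on lettuce roots were scored after 14 days in sand inoculated with root-knot nematode eggs/larvae plus compound diluted in water. Values run from 0% (galls as in untreated plants) to 100% (gall-free).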

Nezara viridula = Nezara viridula spray test; details: 500 g/ha, barley plants, after 4 days
Description: Nezara viridula—Spray Test [table] To produce a suitable active compound preparation, 1 part by weight of active compound is dissolved with the specified parts by weight of solvent and made up to the desired concentration with water containing an emulsifier concentration of 1000 ppm. To produce further test concentrations, the formulation is diluted with emulsifier-containing water. Barley plants (Hordeum vulgare) infected with larvae of the Southern green shield bug (Nezara viridula) are sprayed with an active compound preparation of the desired concentration. After 4 days, the efficacy in % is determined. 100% means that all of the shield bugs have been killed; 0% means that none of the shield bugs have been killed.

Nilaparvata lugens = Nilaparvata lugens test; details: 500 g/ha, spray, rice plants, after 4 days
Description: Nilaparvata lugens Test [table] To produce a suitable active compound preparation, 1 part by weight of active compound is dissolved with the specified parts by weight of solvent and made up to the desired concentration with water containing an emulsifier concentration of 1000 ppm. To produce further test concentrations, the formulation is diluted with emulsifier-containing water. Rice plants (Oryza sativa) are sprayed with the active compound preparation of the desired concentration and then infected with larvae of the brown planthopper (Nilaparvata lugens). After 4 days, the efficacy in % is determined. 100% means that all of the planthoppers have been killed; 0% means that none of the planthoppers have been killed.

Phaedon cochleariae = Phaedon cochleariae spray test; details: 500 g/ha, Chinese cabbage leaf discs, after 7 days
Description: Phaedon cochleariae—Spray Test
(§1) To produce a suitable active compound preparation, 1 part by weight of active compound is dissolved with the specified parts by weight of solvent and made up to the desired concentration with water containing an emulsifier concentration of 1000 ppm. To produce further test concentrations, the formulation is diluted with emulsifier-containing water.
After 7 days, the efficacy in % is determined. 100% means that all the beetle larvae have been killed; 0% means that no beetle larvae have been killed.

Tetranychus urticae = Tetranychus urticae spray test, OP-resistant; details: foliar, 144 h, bean leaf discs, after 6 days, read-out: efficacy
Description: Tetranychus urticae—Spray Test, OP-Resistant
as §1
Discs of bean leaves (Phaseolus vulgaris) infested with all stages of the greenhouse red spider mite (Tetranychus urticae) are sprayed with an active compound preparation of the desired concentration.
After 6 days, the efficacy in % is determined. 100% means that all the spider mites have been killed; 0% means that no spider mites have been killed.

Lucilia cuprina = Lucilia cuprina test; details: 100 ppm, L1 larvae, after 2 days
Description: Lucilia cuprina Test Solvent: dimethyl sulfoxide To produce a suitable active compound preparation, 10 mg of active compound are mixed with 0.5 ml of dimethyl sulfoxide, and the concentrate is diluted with water to the desired concentration. About 20 L1 larvae of the Australian sheep blowfly (Lucilia cuprina) are transferred into a test vessel containing minced horsemeat and the active compound preparation of the desired concentration. After 2 days, the kill in % is determined. 100% means that all the larvae have been killed; 0% means that no larvae have been killed.

Myzus persicae [1] = assay: Myzus persicae spray test (Chinese cabbage leaf discs); details: foliar, 144 h, 500 g/ha, after 6 days, read-out: efficacy
Description: Myzus persicae—Spray Test [table] To produce a suitable active compound preparation, 1 part by weight of active compound is dissolved with the specified parts by weight of solvent and made up to the desired concentration with water containing an emulsifier concentration of 1000 ppm. To produce further test concentrations, the formulation is diluted with emulsifier-containing water. Discs of Chinese cabbage leaves (Brassica pekinensis) infested by all stages of the green peach aphid (Myzus persicae) are sprayed with an active compound preparation of the desired concentration. After 6 days, the efficacy in % is determined. 100% means that all the aphids have been killed; 0% means that no aphids have been killed.

Spodoptera frugiperda = Spodoptera frugiperda spray test; details: 500 g/ha, maize leaf discs, after 7 days
Description: Spodoptera frugiperda—Spray Test [table] To produce a suitable active compound preparation, 1 part by weight of active compound is dissolved with the specified parts by weight of solvent and made up to the desired concentration with water containing an emulsifier concentration of 1000 ppm. To produce further test concentrations, the formulation is diluted with emulsifier-containing water. Leaf discs of maize (Zea mays) are sprayed with an active compound preparation of the desired concentration and, after drying, populated with caterpillars of the armyworm (Spodoptera frugiperda). After 7 days, the efficacy in % is determined. 100% means that all the caterpillars have been killed; 0% means that no caterpillar has been killed.

Diabrotica balteata = Diabrotica balteata spray test; details: 160 μg/well, after 7 days
Description: Diabrotica balteata—Spray Test [table] To produce a suitable active compound preparation, 1 part by weight of active compound is dissolved with the specified parts by weight of solvent and made up to the desired concentration with water containing an emulsifier concentration of 1000 ppm. To produce further test concentrations, the formulation is diluted with emulsifier-containing water. Pre-swollen wheat grains (Triticum aestivum) are incubated in a multiwell plate filled with agar and a little water for one day (5 seed grains per cavity). The germinated wheat grains are sprayed with an active compound preparation of the desired concentration. Subsequently, each cavity is infected with 10-20 beetle larvae of Diabrotica balteata. After 7 days, the efficacy in % is determined. 100% means that all maize plants have grown as in the untreated, uninfected control; 0% means that no maize plant has grown.

Myzus persicae [2] = assay: Myzus persicae oral test; details: 120 h, 20 ppm, after 5 days, read-out: efficacy
Description: (§2) Myzus persicae—Oral Test [table] To produce a suitable active compound preparation, 1 part by weight of active compound is dissolved with the stated parts by weight of solvent and made up to the desired concentration with water. 50 μl of the active compound preparation are transferred into microtitre plates and made up to a final volume of 200 μl with 150 μl of IPL41 insect medium (33%+15% sugar). Subsequently, the plates are sealed with parafilm, which a mixed population of green peach aphids (Myzus persicae) within a second microtitre plate is able to puncture and imbibe the solution through it. After 5 days, the efficacy in % is determined. 100% means that all the aphids have been killed; 0% means that no aphids have been killed.

Myzus persicae [3] = assay: Myzus persicae spray test (bell pepper plants); details: 100 ppm, after 6 days
Description: Myzus persicae—Spray Test [table] To produce a suitable active compound preparation, 1 part by weight of active compound is dissolved with the specified parts by weight of solvent and made up to the desired concentration with water containing an emulsifier concentration of 1000 ppm. To produce further test concentrations, the formulation is diluted with emulsifier-containing water. If the addition of ammonium salts or/and penetrants is required, these are each added in a concentration of 1000 ppm to the formulation solution. Bell pepper plants (Capsicum annuum) severely infested with the green peach aphid (Myzus persicae) are treated by spraying with the active compound preparation in the desired concentration. After 6 days, the kill in % is determined. 100% means that all of the aphids have been killed; 0% means that none of the aphids have been killed.

Aphis gossypii = Aphis gossypii oral test; details: 100 ppm, after 5 days
Description: as §2, with “Aphis gossypii—Oral” for “Myzus persicae—Oral”, “the cotton aphid (Aphis gossypii)” for “green peach aphids (Myzus persicae)”

Row | SMILES | efficacy (laying of fertile eggs) (Boophilus microplus) [%] | pest or weed control at 20 ppm (Meloidogyne incognita) [%] | efficacy (Phaedon cochleariae) [%] | pest or weed control at 500 g/ha (Tetranychus urticae) [%] | pest or weed control at 500 g/ha (Myzus persicae [1]) [%] | efficacy (Spodoptera frugiperda) [%] | other results
1 | COc1cccc(S(=O)(=O)NC(=O)c2ncn(CCC(F)(F)F)c2Cl)c1 [I-032] | 90 | 90 | 83 | 90 | – | – | efficacy (kill in %) (Ctenocephalides felis): 70%; efficacy (Nezara viridula): 100%; efficacy (Nilaparvata lugens): 100%
2 | Cc1cccc(S(=O)(=O)NC(=O)c2ncn(CCC(F)(F)F)c2Cl)c1 [I-035] | 100 | 90 | 100 | – | – | – | efficacy (kill in %) (Lucilia cuprina): 100%; efficacy (Nezara viridula): 100%; efficacy (Nilaparvata lugens): 100%
3 | O=C(NS(=O)(=O)c1ccccc1)c1ncn(C2CC2C(F)(F)F)c1Cl (stereo not shown) [I-059] | 100 | 100 | 83 | 90 | 70 | 100 | –
4 | O=C(NS(=O)(=O)c1ccccc1Cl)c1ncn(C2CC2C(F)(F)F)c1Cl (stereo not shown) [I-060] | 70 | 90 | – | 90 | 70 | 100 | –
5 | COc1ccc(Cl)c(S(=O)(=O)NC(=O)c2nc(Cl)n(CCC(F)(F)F)c2Cl)c1 [I-118] | – | 100 | – | – | – | – | efficacy (Diabrotica balteata): 100%
6 | O=C(NS(=O)(=O)c1ccccc1Cl)c1cn(Cc2ccccc2Cl)cn1 [I-156] | – | 100 | – | – | – | 100 | –
7 | Cc1nc(C(=O)NS(=O)(=O)c2ccccc2Cl)cn1-c1cc(Cl)cc(Cl)c1 [I-316] | – | 100 | – | – | – | – | pest or weed control at 20 ppm (Myzus persicae [2]): 100%; efficacy (kill in %) (Myzus persicae [3]): 95%
8 | CCSc1cccc(Cl)c1S(=O)(=O)NC(=O)c1cn(-c2cc(F)cc(F)c2)c(C)n1 [I-387] | – | 100 | – | – | 70 | – | pest or weed control at 20 ppm (Myzus persicae [2]): 100%; efficacy (kill in %) (Myzus persicae [3]): 99%
9 | CS(=O)(=O)NC(=O)c1cn(Cc2ccc(C(F)(F)F)c(Cl)c2)cn1 [I-412] | – | 100 | – | – | – | – | efficacy (Aphis gossypii): 90%

Source: patent publication US10820591B2, “Substituted sulfonyl amides for controlling animal pests” (Bayer Aktiengesellschaft, priority 2016, dated 2020)
